row,Compound,melting point [°C]
1,C=CCCNS(=O)(=O)CC(=O)C1=C(C)NC(C)=C(C(=O)OC(C)C)C1c1cccc([N+](=O)[O-])c1 (centres undefined),137 to 140
2,COc1ccc(CCC(=O)Nc2c(C)c(C)c3c(c2C)C(c2ccc(C(C)C)cc2)CO3)cc1 (centres undefined),119 to 120
3,CNC(=S)C1(c2ccncc2)CCCS1 (centres undefined),178
4,Cc1cccnc1-c1cc2cccnc2c(Cl)n1,130 to 131
5,Nc1nnc(-c2ccccc2Cl)c(-c2ccccc2Cl)n1,240 to 242
6,CC(O)N(C)C(=O)c1cc(C(C)(C)C)c(O)c(C(C)(C)C)c1 (centres undefined),161 to 164
7,ClCCCOc1cccc2c(OCCCCl)cccc12,219
8,C=C(C)C(=O)OC1CC(=O)NC1=O (centres undefined),102
9,CCOC(=O)c1cnn(-c2ccccn2)c1Cl,50 to 51
10,OC1(O)C(F)(F)CCCC1(Cl)Cl,30
11,Cc1c(Cc2ccc([N+](=O)[O-])cc2)c(=O)oc2cc(O)cc(O)c12,280 to 285
12,CC(=O)c1ccc2c(c1)C1(c3cc(C(C)=O)ccc3-2)c2cc(C(C)=O)ccc2-c2ccc(C(C)=O)cc21,> 300
13,Cc1cc(Oc2c([N+](=O)[O-])cc([N+](=O)[O-])cc2C(F)(F)F)n[nH]1,145 to 147
14,COc1ccc(-c2cc3cc(OC)cc(C(C)(C)C#N)c3o2)cc1,146 to 148
15,CCOC(=O)C(=CNc1ccc(F)cc1F)C(=O)c1c(F)c(F)c(F)c(F)c1F,97 to 99
16,CCCCCCCCCCCCCCCCNc1ccc(C(=O)NC(C)(C)C(=O)O)cc1,199 to 202
17,CC(C)(C)OC(=O)c1cc(OCc2ccccc2)c(C(=O)c2c(OCc3ccccc3)cccc2C(=O)O)c(OCc2ccccc2)c1,151 to 156
18,CCCCCCCC(=O)N(CCc1ccc(CCO)cc1)S(=O)(=O)c1ccc(Cl)cc1,55
19,CC(=O)NCC(=O)NCC1(SCc2ccccc2)C2CC3CC(C2)CC1C3 (centres undefined),132 to 134
20,Nc1nc(-c2cc(Cl)ccc2Cl)nc(N2CCS(=O)(=O)CC2)n1,> 275
21,CCc1nc2c(n1Cc1ccc(-c3ccccc3)cc1)C(=O)N(C)CN2c1ccc(Cl)cc1Cl,216 to 217
22,CCCCCCCCCCCC(=O)c1c[nH]c2cc(C(=O)OC)ccc12,167 to 169
23,O=C1Nc2ccccc2CN(c2ccccc2)N1,283 to 286
24,CCOC(=O)CNC(=O)CCN(C(=O)c1ccc(Cl)cc1)c1ccc(OC)cc1,87 to 89

row,Compound,melting point [°C]
1,FC(F)(F)c1nnc2sc3ccccc3n12,140 to 141
2,CNC(=O)[C@@H](NC(=O)[C@@H](CC(=O)OCc1ccccc1)n1ccc(-c2ccc(C#N)cc2)c1)C(C)(C)C,102 to 104
3,CC(=O)Oc1ccccc1NC(=O)c1cc(Cl)c(OC(C)=O)c(Cl)c1,154 to 156
4,Cc1nc2c(OCc3c(Cl)ccc(N(C)C(=O)CNC(=O)CN4C(=O)c5ccccc5C4=O)c3Cl)cccn2c1Br,148 to 150
5,Cc1cc2c(cc1C)C(c1ccccc1)(C(F)(F)C(F)(F)F)c1cc(C)c(C)cc1O2,178 to 179
6,CCCCNC(=O)C(Cc1ccccc1)NC(=O)Nc1n[nH]c(=S)s1 (centres undefined),177 to 179
7,C=CCc1cc(C2=NNC(=O)CC2)ccc1OCC(O)CNC(C)C (centres undefined),94 to 96.5
8,CCCSc1ncnc2c1ncn2C1CC(F)C(CO)O1 (centres undefined),85 to 86
9,COC(=O)c1cccc2c1ccn2Cc1ccc(OCc2ccc3ccccc3n2)cc1,128 to 131
10,CCOC(=O)c1ncc2[nH]c3ccc(C(C)OC)cc3c2c1C (centres undefined),96 to 97
11,CNc1c(F)cc2c(=O)c(C(=O)O)cn(-c3cc(N)c(F)cc3F)c2c1OC,225 to 227
12,O=C(O)c1cn(C2CC2)c2c(F)c(N3CC(O)C3)c(F)cc2c1=O,286 to 288
13,CCCc1nn(C)c2c1N=C(c1cc(C(=O)O)ccc1OCC)NC2,285 to 288
14,Cc1ccc(C=Cc2csc3ccccc23)s1,62 to 64
15,CC(C)(C)OC(=O)N1CCC(NC(=O)c2ccc(-n3ncc4ccccc43)cc2)CC1,165 to 166
16,O[C@@H]1CNCC[C@H]1NCc1ccccc1 (relative stereo),136
17,CCCOc1ccc(S(C)(=O)=O)cc1C(=O)Nc1c(CC)n[nH]c1C(N)=O,209 to 210
18,CC(C)(C)c1cc2c(s1)Nc1ccccc1N=C2N1CCN[C@@H](CCc2ccccc2)C1,93 to 96
19,C=CC(=O)N(CC)c1cn(-c2cccnc2)nc1Cl,67 to 68
20,CC(C)Sc1cc2c(cc1Cl)N=C(CCl)NS2(=O)=O,248 to 250
21,CC1=C(C)N(c2c(Br)cc(C)cc2Br)C2=NCCN21,154 to 156
22,CC(=O)NC[C@H]1CN(c2ccc(-c3ccncc3)c(F)c2)C(=O)O1,179 to 180
23,CCCCCCNc1nc(-c2ccccc2)c(-c2ccc(=O)n(C(C)C)n2)s1,90 to 92
24,Cc1nc(N2CCN(CC3CC3(F)F)C2=O)sc1C(=O)O (centres undefined),210 to 215

row,Compound,melting point [°C]
1,CCC(O)(c1cc(F)cc(Sc2ccc3c(-c4ccoc4)cc(C#N)cc3c2)c1)c1nccs1 (centres undefined),120 to 122
2,COc1ccccc1NC(=O)Nc1nc2nc(NCCCN3CCN(C)CC3)ncc2cc1-c1c(Cl)cccc1Cl,152 to 154
3,CCCCCCCCC(Oc1ccc(C(=O)CCCCCCC)cc1)C(=O)O (racemic),45 to 47
4,CN1C(=O)C(C)(C)N=C(c2ccccc2Cl)c2cc([N+](=O)[O-])cc(Cl)c21,254
5,CCC1=NNC(C)=C(C(=O)OC(C)(C)C)C1c1cccc([N+](=O)[O-])c1 (centres undefined),122
6,CC(C)c1ccc(S(=O)(=O)c2ccccc2)cc1S(=O)(=O)NC1CCN(C(=O)c2ccc(F)cc2)CC1,218 to 220
7,CNc1cc(C(=O)O)ccc1C,167 to 169
8,CCOC(=O)Oc1cccc(OC)c1Cl,75 to 76
9,CN1Cc2c(C(=O)OC(C)(C)C)ncn2-c2cccc(Br)c2C1=O,207 to 208
10,COc1ccc(CNc2cc3c(Nc4ccc(Cl)c(Cl)c4)ncnc3cn2)cc1,209 to 211
11,O=C([C@@H]1CCCN1S(=O)(=O)c1ccc2ccccc2c1)N1C[C@H](c2ccc(Cl)cc2)Sc2ccc3ccccc3c21,204 to 205
12,CC(=O)c1cn(C)c2ccc(C)cc12,119 to 121
13,Cc1ccc2oc(CC(=O)O)c(C)c2c1,116 to 117
14,CC(=O)Oc1cc(C)ccc1C1CCN(CCCCNC(=O)c2ccc(-c3ccc(C#N)cc3)cc2)CC1,128 to 130
15,COCCCn1c(C=O)cc2c3c(c(-c4ccccc4Cl)cc21)C(=O)NC3=O,155 to 156
16,CCc1nnc(-c2ccc(OC)cc2)n1-c1ccc(OC)c(OC)c1,150
17,COc1cccc(C(=O)N(C)Cc2cccc3c2C(=O)N(C2CCC(=O)NC2=O)C3=O)c1 (centres undefined),216 to 218
18,COc1cccc(CSCCNC(=O)c2c(Cl)cccc2OC)c1,58 to 59
19,O=c1c(-c2ccccc2)coc2ccccc12,132 to 134
20,N#CCc1cc(Br)cc(Cc2nc3c(F)c(F)cc(F)c3s2)c1,119 to 124
21,O=c1nc(-c2cccc(Cl)c2)c2cc(Br)ccc2[nH]1,281
22,OCc1cc(N2CCCCC2)c(Br)cn1,118 to 119
23,O=C1c2ccccc2C(=O)N1n1cccc1-c1ccccc1,168 to 170
24,CC(C)c1nn(-c2ccc(C(F)(F)F)cn2)cc1CCCOc1nn(C2CCCCC2)cc1CC(=O)O,116 to 117

row,Compound,melting point [°C]
1,COc1cc(CC(=O)NCC(=O)N(CCC(=O)O)Cc2ccc(OC)c(OC)c2)ccc1NC(=O)Nc1ccccc1C,172 to 174
2,C[C@H](NC(=O)C[C@H](O)C[C@H](O)/C=C/c1c(C2CC2)nc2ccccc2c1-c1ccc(F)cc1)c1ccccc1,57 to 76
3,CCNC(=S)NS(=O)(=O)c1cc2c(cc1OC)OCCC2CNC(=O)c1cc(F)ccc1OC (centres undefined),207
4,Cn1c(COc2ccc(CC3SC(=O)NC3=O)cc2)nc2ccc(Oc3ccc(NC(=O)c4ccc5ccccc5c4)cc3)cc21 (centres undefined),221 to 223
5,CCc1cc(=O)n(-c2cc3[nH]c(=O)sc3cc2F)c(=O)n1C,> 250
6,CCCc1nn(-c2ccc(C(F)(F)F)cn2)cc1CCCOc1ccc(C(C)(C)C(=O)O)cc1,84 to 85
7,O=C(Nc1ccc(Oc2ccc(Cl)cc2)cc1)Nc1nonc1-c1ccccc1,195
8,CC1CCN(CCCC(=O)c2ccc3c(c2)C(=O)c2cc(C(=O)CCCN4CCC(C)CC4)ccc2-3)CC1,178 to 180
9,CCN(CC)CCOc1ccc(Nc2ncc3c(n2)N(C)C(=O)N(c2cccc(Br)c2)C3)cc1,150
10,COc1cc(OC)c(-c2cccnc2)cc1/C=C/C(=O)c1ccc(S(N)(=O)=O)cc1,253 to 255
11,CN(CCc1cccs1)C(=O)C12CC3CC(CC(C3)C1)C2,95 to 99
12,COc1ccc(Nc2ccnc3nc(CO)ccc23)cc1,275 to 281
13,CCOC(=O)C1=C(c2ccc(-n3c(C)nc4cnccc43)cc2)NC(C)=C(C(=O)Nc2ccccn2)C1c1ccccc1Cl (centres undefined),226 to 228
14,COc1nc(N)nc(-c2ccccc2)c1-c1ccc(=O)n(C(C)C)n1,230 to 233
15,NC(=O)Cc1ccc(-c2cnc3[nH]c(=O)n(CC4CCCCC4)c3n2)cc1,272 to 274
16,CC1SC(=O)NN=C1c1ccc2c(c1)C(C)(C)C(=O)N2C (centres undefined),125
17,CC(=O)c1ccc(Nc2cccc(-c3cnc(N)nc3)c2)c(N)c1,228 to 230
18,Cc1sc2c(Br)c3ccccc3c(-c3ccc(OS(=O)(=O)c4ccc(C(=O)O)c(O)c4)c(C(C)C)c3)c2c1C,> 225
19,CCCCc1c(C(=O)N(C)Cc2ccc3c(Br)c(O)ccc3c2)oc2ccccc12,53 to 56
20,COc1nc2cc(Cl)c(Cl)c(C#Cc3ccccc3)c2nc1OC,170 to 172
21,O=C(NC1CC1)c1cccc2c1CC(NC1CC1)CO2 (centres undefined),126 to 127
22,COC(=O)C1CC2c3cccc4[nH]cc(c34)CC2N(C(C)C)C1 (centres undefined),193 to 195
